# Assays:
# Assay in all cases: relative viability (nuclei count vs DMSO), 5 days (fraction); higher = more cells survive
# [1] = compound: COc1cc2nc(N3CCCN(C)CC3)nc(NC3CCN(Cc4ccccc4)CC3)c2cc1OC
# How it was run: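 On vehicle-anchored 1536-well plates, lung cancer cell lines held overnight at 37 °C were pinned with five library-drug doses (not always all listed) spaced by √10. With no medium change over 5 days, they were then fixed, permeabilised and Hoechst-stained in one step and imaged at 4×. MetaXpress counted nuclei, and viability is the median across plates of treated-well over vehicle-well nuclei. Acceptance needed control CV below 25% and at least one doubling.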
# [2] = compound: COc1cc2nc(N3CCCN(C)CC3)nc(NC3CCN(Cc4ccccc4)CC3)c2cc1OC + CC(C)C[C@H](NC(=O)[C@H](Cc1ccccc1)NC(=O)c1cnccn1)B(O)O [Bortezomib] (partner 0.002 µM)
# How it was run: (§1)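 Relative viability is defined as nuclei in treated wells over nuclei in vehicle wells. Duplicate plates were run and medians reported. Lung cancer cell lines in 1536-well plates were dosed by pin tool one day after seeding, with one drug or with a fixed anchor-drug dose plus five library-drug doses (not always all listed) in √10 steps, and nuclei were counted after 5 days.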
# [3] = compound: COc1cc2nc(N3CCCN(C)CC3)nc(NC3CCN(Cc4ccccc4)CC3)c2cc1OC + Nc1nc2[nH]cc(CCc3ccc(C(=O)N[C@@H](CCC(=O)O)C(=O)O)cc3)c2c(=O)[nH]1 [Pemetrexed] (partner 0.2 µM)
# How it was run: as §1
# [4] = compound: Cc1cc([C@@H](C)Nc2ccccc2C(=O)O)c2nc(N3CCOCC3)cc(=O)n2c1 [AZD6482] + N=C(N)NC(=N)NCCc1ccccc1 [Phenformin] (partner 250 µM)
# How it was run: as §1
Cell Line,relative viability ([1]; 0.2 µM),relative viability ([1]; 0.6325 µM),relative viability ([1]; 2 µM),relative viability ([1]; 6.325 µM),relative viability ([2]; first compound 0.2 µM),relative viability ([2]; first compound 0.6325 µM),relative viability ([2]; first compound 2 µM),relative viability ([2]; first compound 6.325 µM),relative viability ([3]; first compound 0.2 µM),relative viability ([3]; first compound 0.6325 µM),relative viability ([3]; first compound 2 µM),relative viability ([3]; first compound 6.325 µM),relative viability ([4]; first compound 0.08 µM),relative viability ([4]; first compound 0.253 µM),relative viability ([4]; first compound 0.8 µM),relative viability ([4]; first compound 2.53 µM),relative viability ([4]; first compound 8 µM)
NCI-H23,0.975,0.962,1.05,0.927,1,0.943,1.2,0.918,0.66,0.695,0.918,0.703,0.789,0.785,0.84,0.628,0.658
NCI-H322M,0.856,1.09,0.9,0.854,1.31,1.28,1.12,1.2,0.606,0.623,0.581,0.584,0.705,0.673,0.712,0.414,0.537
NCI-H441,0.985,0.825,1.03,0.81,0.454,,0.519,0.36,0.256,0.264,0.246,0.276,0.677,0.679,0.967,,0.468
NCI-H460,0.997,1.01,0.992,0.978,1.04,1.05,1.14,0.864,0.063,0.0592,0.0662,0.0719,0.492,0.512,0.535,0.326,0.182
NCI-H520,1.02,0.912,1.02,0.736,0.792,0.623,0.777,0.217,0.608,0.622,0.573,0.183,0.402,0.283,0.285,0.166,0.225
NCI-H596,0.969,1.19,0.964,0.836,1.21,1.17,0.959,0.763,0.515,0.534,0.503,0.468,0.658,0.576,0.636,0.691,0.737
NCI-H647,0.872,1.06,1.04,0.764,0.967,1,1.35,0.449,0.161,0.199,0.19,0.152,0.417,0.473,0.399,0.262,0.324
NCI-H650,0.973,0.935,1.09,0.862,0.752,0.739,1.05,0.694,0.935,0.877,0.924,0.92,0.467,,0.431,0.292,0.31
NCI-H661,0.978,0.987,1,1.01,0.813,0.793,0.935,0.868,0.882,0.894,0.904,0.923,0.285,0.274,0.297,0.245,0.216
NCI-H838,0.992,1.03,1.08,0.92,0.858,1.02,0.73,0.721,0.259,0.263,0.293,0.243,0.459,0.519,0.497,0.263,0.397
NCI-H1355,0.891,0.992,1,0.95,1.23,1.21,1.29,1.1,1.06,1.03,1.01,0.945,0.41,0.386,0.414,0.308,0.329
NCI-H1437,0.983,0.992,1.06,0.99,0.614,0.683,0.65,0.459,0.279,0.293,0.36,0.324,0.268,0.287,0.262,0.223,0.261
NCI-H1563,0.974,0.963,0.967,0.966,0.849,0.921,0.808,0.778,0.646,0.9,0.879,0.896,0.684,0.653,0.67,0.65,0.629
NCI-H1650,0.863,1.03,0.924,0.835,0.228,0.189,0.2,0.216,0.389,0.407,0.441,0.313,0.333,0.369,0.373,0.233,0.297
NCI-H1651,0.974,0.983,1.02,1.03,0.884,0.939,1.03,0.934,0.623,0.598,0.597,0.624,0.281,0.296,0.33,0.253,0.242
NCI-H1666,0.948,1.05,0.947,0.903,0.832,0.781,0.701,0.468,0.885,0.785,0.766,0.872,0.532,0.548,0.582,0.525,0.577

Cell Line,relative viability ([1]; 0.2 µM),relative viability ([1]; 0.6325 µM),relative viability ([1]; 2 µM),relative viability ([1]; 6.325 µM),relative viability ([2]; first compound 0.2 µM),relative viability ([2]; first compound 0.6325 µM),relative viability ([2]; first compound 2 µM),relative viability ([2]; first compound 6.325 µM),relative viability ([3]; first compound 0.2 µM),relative viability ([3]; first compound 0.6325 µM),relative viability ([3]; first compound 2 µM),relative viability ([3]; first compound 6.325 µM),relative viability ([4]; first compound 0.08 µM),relative viability ([4]; first compound 0.253 µM),relative viability ([4]; first compound 0.8 µM),relative viability ([4]; first compound 2.53 µM),relative viability ([4]; first compound 8 µM)
NCI-H1734,0.967,0.876,0.889,0.855,0.919,0.792,1.05,0.662,0.405,0.414,0.401,0.424,0.386,0.333,0.465,0.229,0.226
NCI-H1755,0.974,0.957,0.939,0.935,1,0.965,0.922,0.88,0.459,0.415,0.414,0.368,0.525,0.576,0.542,0.427,0.41
NCI-H1792,0.821,1.06,0.952,1.11,0.952,1.01,1.08,1.22,0.74,0.826,0.985,0.752,0.222,0.237,0.298,,0.13
NCI-H1915,0.978,0.908,1.06,0.973,0.97,0.973,1.02,0.957,0.48,0.442,0.503,0.463,0.379,0.334,0.384,0.326,0.357
NCI-H1975,0.974,0.999,1.15,1,0.371,0.376,0.346,0.413,0.289,0.301,0.309,0.267,0.373,0.383,0.401,0.283,0.232
NCI-H1993,0.879,1.18,0.912,0.905,1.02,1.37,1.23,1.05,0.602,0.644,0.579,0.549,0.49,0.488,0.471,0.524,0.449
NCI-H2009,1.04,0.94,1.17,0.932,0.94,0.833,1.08,0.965,1,0.972,1.03,0.943,0.476,0.49,0.442,0.283,0.34
NCI-H2023,0.949,0.995,0.93,0.516,1.02,0.967,1.05,0.329,0.161,0.254,0.248,0.144,0.384,0.368,0.379,0.261,0.29
NCI-H2085,1.01,1.02,0.992,0.965,1,0.978,0.996,0.912,0.827,1.02,0.943,0.87,0.483,0.448,0.406,0.318,0.29
NCI-H2087,0.921,0.995,1.03,1.09,0.868,0.795,0.884,0.675,0.663,0.622,0.686,0.656,0.44,0.442,0.474,,0.385
NCI-H2126,0.996,1.02,0.998,0.926,1.15,1.09,1.13,1.08,0.74,0.623,0.637,0.644,0.507,0.521,0.451,0.355,0.349
NCI-H2228,0.9,1.12,1.07,0.753,0.91,0.841,1.47,0.519,0.32,0.347,0.336,0.26,,0.315,0.324,0.309,0.284
NCI-H2347,1.02,0.975,1.04,1,1.04,0.846,1.08,1.07,0.394,0.4,0.494,0.538,0.198,0.277,0.235,0.243,0.221
NCI-H2405,1.03,1.08,1.13,0.989,0.978,0.987,1.04,0.971,1.02,1.12,1.11,1.05,0.274,,0.346,0.309,0.274
NCI-H3122,0.932,0.959,1.04,0.998,0.97,0.966,1.07,0.989,0.206,0.198,0.19,0.2,0.385,0.381,0.371,,0.412

# Source: the supplement of paper PMC10307832
